Patent US10023593B2, “ALK kinase inhibitor, and preparation method and uses thereof” (BEIJING PEARL BIOTECHNOLOGY LIMITED LIABILITY COMPANY, priority 2014, dated 2018)

How the values were obtained:
[1] = test system: Karpas-299 cell line; test: CellTiter-Glo cell proliferation inhibition on Karpas-299 cell line; type: cell-based; details: Homo sapiens, 96 h, Karpas-299 cells, 5000 cells/well, 4 days drug treatment
Procedure: 4. Cell Proliferation Inhibitory Activities of the Compounds of the Present Invention on Karpas-299 Cell Line
? experimental method ? CellTiter-Glo® Luminescent Cell Viability Assay kit from Promega company was used to detect cell proliferation inhibitory activities of the compounds on Karpas-299 cell line.
? instrument ? Envision 2104 plate reader from PerKinElmer company; Vi-Cell XR cell counter from Beckman Counter company; MCO-18AIC CO2 incubator from SANYO company.
? experiment material ? CellTiter-Glo® Luminescent Cell Viability Assay Kit (Promega company, catalog No. G7573); Karpas-299 cell line (DSMZ, catalog No. ACC31); RPMI-1640 medium (HyClone company, catalog No. SH30809.01B); fetal bovine serum (FBS) (Gibco company, catalog No. 10099-141); PBS (HyClone company, catalog No. SH30256.01B); 96 wells cell culture plate (Corning company, catalog No. 3610); DMSO (AMRESCO company, catalog No. 0231); 96 wells plates (for diluting compounds) (CITOTEST company, catalog No. Ref36020096D);
? experimental condition ? Karpas-299 cells in exponential growth phase were collected and viable cells were counted by Vi-Cell XR cell counter. Cell suspension was adjusted to 62500 cells/ml with culture medium (RPMI-1640+10% FBS). 80 μl cell suspension was added into each well of 96 wells cell culture plate so that so that the final cell number of Karpas-299 cells was 5000 cells/well. The cells were cultivated in an incubator with an atmosphere of 37° C., 5% CO2 and 95% humidity for 2 hours and then each well was added with 20 μl compounds in RPMI-1640 medium solution (the final concentration of DMSO was 0.5%). 4 days after drug treatment, each well was added with 50 μl CellTiter-Glo solution which was previously thawed and equilibrated to room temperature, and mixed for 2 minutes with microplate shaker. After placing at room temperature for 10 minutes, luminescence reading value was measured with PerkinElmer Envision 2104 plate reader and the data was analyzed.
? tested samples ? Compounds of the examples.
Luminescence value of DMSO solvent control (Vvehicle control, which is the mean luminescence value from DMSO solvent control group)
Tested luminescence value (Vsample, which is the luminescence value from given concentration of compounds group) Inhibition rate (%)=(1−Vsample/Vvehicle control)×100
(§1) ? data processing ? IC50 of compounds was calculated by using XLfit program in Excel.

[2] = biological target: T1, Wild Type ALK kinase (Homo sapiens, UniProt Q9UM73); test: HTRF KinEASE-TK assay, inhibitory activity on wild type ALK kinase; type: biochemical; details: wild type ALK 1 ng/μl, substrate 1 μM, 30° C. 35 minutes, read-out: Inhibition on ALK kinases (wildtype), IC50
T1 construct: purchased Sino-US Crown Bioscience, Inc. batch number ALK 20110607
Excerpt: 1. Inhibitory Activities of the Compounds of the Present Invention on Wild Type ALK Kinases
? experimental method ? HTRF KinEASE™-TK Assay kit from Cisbio company was used to detect inhibitory activities of the compounds on wildtype ALK kinases (wild type ALK kinases).
? instrument ? Envision 2104 plate reader from PerKinElmer company.
? experiment material ? HTRF KinEASE™-TK Assay Kit (Cisbio company, catalog No. 62TK0PEC); Wild Type ALK kinase (produced by Sino-US Crown Bioscience, Inc., batch number ALK 20110607); DTT (Gibco BRL company, catalog No. 15508-012); MgCl2 (Sigma Aldrich company, catalog No. M-2670); ATP (Sigma Aldrich company, catalog No. A-7699); DMSO (AMRESCO company, catalog No. 0231); EDTA (AMRESCO company, catalog No. 0105); 96 wells plates (for diluting compounds) (CITOTEST company, catalog No. Ref36020096D); OptiPlate™-384 (White), PerkinElmer company, catalog No. P12-004)
? experimental condition ? Compounds (the final concentration of DMSO was 1%), the reaction substrate (the final concentration was 1 μM), ATP (the final concentration was […]), and Wildtype ALK kinases (the final concentration was 1 ng/μl) were mixed respectively in a final volume of 10 μl reaction system (containing 5 mM MgCl2, 1× Kinase buffer, and 1 mM DTT). The mixture was reacted at 30° C. for 35 minutes after shaking for 30 seconds. After completion of the reaction, each well was added with 5 μl Sa-XL665 and 5 μl TK Antibody-Eu(K), and placed in the dark for 60 minutes to end the reaction after uniform mixing. The data was read from PerkinElmer EnVision plate reader ([…]), the 665/615 ratio was calculated, and the data was analyzed.
? tested samples ? Compounds from the examples.
? data analysis ? Minimum 665/615 ratio (Rmin, 665/615 ratio under the condition that 10.4 μM positive control drug LDK-378 was added)
Maximum 665/615 ratio (Rmax, 665/615 ratio under the condition that no compound was added)
Tested 665/615 ratio (Rcompound, 665/615 ratio under the condition that a given concentration of compound was added) Inhibition rate (%)=[1−(Rcompound−Rmin)/(Rmax−Rmin)]×100
as §1

T1 sequence (Q9UM73 19-1620): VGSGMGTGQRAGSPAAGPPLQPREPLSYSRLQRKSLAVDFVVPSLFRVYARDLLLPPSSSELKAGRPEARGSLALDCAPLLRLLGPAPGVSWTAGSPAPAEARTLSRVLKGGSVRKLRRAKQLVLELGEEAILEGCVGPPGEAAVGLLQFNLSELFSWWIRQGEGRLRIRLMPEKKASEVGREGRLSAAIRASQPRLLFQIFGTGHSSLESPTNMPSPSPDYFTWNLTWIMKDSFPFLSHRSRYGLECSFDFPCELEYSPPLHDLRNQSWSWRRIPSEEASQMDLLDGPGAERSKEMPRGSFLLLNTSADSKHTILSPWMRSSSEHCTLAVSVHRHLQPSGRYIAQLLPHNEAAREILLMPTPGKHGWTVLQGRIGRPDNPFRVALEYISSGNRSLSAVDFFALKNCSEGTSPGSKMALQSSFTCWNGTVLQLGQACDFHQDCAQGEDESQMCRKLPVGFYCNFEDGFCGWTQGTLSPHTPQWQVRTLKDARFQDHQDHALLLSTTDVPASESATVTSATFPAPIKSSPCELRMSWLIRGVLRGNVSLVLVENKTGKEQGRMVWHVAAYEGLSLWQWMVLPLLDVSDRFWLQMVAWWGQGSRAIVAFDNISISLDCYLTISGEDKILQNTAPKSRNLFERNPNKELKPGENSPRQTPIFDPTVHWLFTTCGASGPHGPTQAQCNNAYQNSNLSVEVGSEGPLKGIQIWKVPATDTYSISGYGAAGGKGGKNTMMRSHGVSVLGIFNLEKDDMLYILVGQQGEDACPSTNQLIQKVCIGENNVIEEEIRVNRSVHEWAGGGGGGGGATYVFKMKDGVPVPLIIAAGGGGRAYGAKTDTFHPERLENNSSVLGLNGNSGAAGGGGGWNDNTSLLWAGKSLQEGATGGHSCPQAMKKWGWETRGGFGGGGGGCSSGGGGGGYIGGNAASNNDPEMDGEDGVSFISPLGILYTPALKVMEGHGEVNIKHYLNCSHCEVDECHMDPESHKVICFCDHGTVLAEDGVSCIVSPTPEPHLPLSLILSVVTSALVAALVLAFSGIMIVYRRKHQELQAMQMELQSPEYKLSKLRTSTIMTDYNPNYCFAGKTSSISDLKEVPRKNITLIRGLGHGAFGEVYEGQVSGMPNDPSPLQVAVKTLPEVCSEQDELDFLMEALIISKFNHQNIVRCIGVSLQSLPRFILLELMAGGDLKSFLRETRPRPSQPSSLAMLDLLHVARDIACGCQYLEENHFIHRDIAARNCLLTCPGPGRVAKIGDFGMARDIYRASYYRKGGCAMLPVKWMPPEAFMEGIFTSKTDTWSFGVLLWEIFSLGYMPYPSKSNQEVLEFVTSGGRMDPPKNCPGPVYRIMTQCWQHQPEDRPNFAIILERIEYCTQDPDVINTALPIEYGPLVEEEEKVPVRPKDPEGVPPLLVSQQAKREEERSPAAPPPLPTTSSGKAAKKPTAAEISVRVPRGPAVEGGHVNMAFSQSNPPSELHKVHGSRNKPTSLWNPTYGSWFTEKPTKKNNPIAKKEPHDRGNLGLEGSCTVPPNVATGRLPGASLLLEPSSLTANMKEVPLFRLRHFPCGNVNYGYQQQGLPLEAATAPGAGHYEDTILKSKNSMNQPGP

Compound | IC50 [1] [nM] | IC50 [2] [nM]
Cc1cc(Nc2ncc(Cl)c(Nc3cn(C)nc3S(=O)(=O)C(C)C)n2)c(OC(C)C)cc1C1CNC1 [Final product 4] | 60 | 4
Cc1cc(Nc2ncc(Cl)c(Nc3cn(C4CC4)nc3S(=O)(=O)C(C)C)n2)c(OC(C)C)cc1C1CCNCC1 [Final product 5] | 37 | 6
Cc1cc(Nc2ncc(Cl)c(Nc3cn(C)nc3S(=O)(=O)CC(C)C)n2)c(OC(C)C)cc1C1CCNCC1 [Final product 6] | 24 | 3
CCC(C)S(=O)(=O)c1nn(C)cc1Nc1nc(Nc2cc(C)c(C3CCNCC3)cc2OC(C)C)ncc1Cl (stereo not shown) [Final product 7] | 21 | 8
Cc1cc(Nc2ncc(Cl)c(Nc3cn(C)nc3S(=O)(=O)C(C)C)n2)c(OC(CF)CF)cc1C1CCNCC1 [Final product 8] | 67 | 9
CC(C)S(=O)(=O)c1nn(C)cc1Nc1nc(Nc2ccc(C3CCNCC3)cc2OC(F)(F)F)ncc1Cl [Final product 9] | 119 | 16
Cc1cc(Nc2ncc(Cl)c(Nc3cn(C)nc3S(=O)(=O)C(C)C)n2)c(OC(F)(F)F)cc1C1CCNCC1 [Final product 10] | 20 | 7
Cc1cc(Nc2ncc(Cl)c(Nc3cn(C)nc3S(=O)(=O)C(C)C)n2)c(C(F)(F)F)cc1C1CCNCC1 [Final product 11] | 61 | 22
Cc1cc(Nc2ncc(Cl)c(Nc3cn(C)nc3S(=O)(=O)C(C)C)n2)c(OCC2CC2)cc1C1CCNCC1 [Final product 12] | 43 | 10
CC(C)S(=O)(=O)c1nn(C)cc1Nc1nc(Nc2ccc(C3CCNCC3)cc2OC2CC2)ncc1Cl [Final product 13] | 7 | 3
CC(C)S(=O)(=O)c1nn(C)cc1Nc1nc(Nc2ccc(C3=CCNCC3)cc2OC2CC2)ncc1Cl [Final product 14] | 19 | 4
CC(C)S(=O)(=O)c1nn(C)cc1Nc1nc(Nc2ccc(C3CCNC3)cc2OC2CC2)ncc1Cl (stereo not shown) [Final product 15] | 9 | 3
CC(C)S(=O)(=O)c1nn(C2CC2)cc1Nc1nc(Nc2ccc(C3CCNCC3)cc2OC2CC2)ncc1Cl [Final product 16] | 8 | 4
CC(C)CS(=O)(=O)c1nn(C)cc1Nc1nc(Nc2ccc(C3CCNCC3)cc2OC2CC2)ncc1Cl [Final product 17] | 36 | 11
CC(C)CS(=O)(=O)c1nn(C)cc1Nc1nc(Nc2ccc(C3CCNC3)cc2OC2CC2)ncc1Cl (stereo not shown) [Final product 18] | 28 | 2
CC(C)S(=O)(=O)c1nn(C)cc1Nc1nc(Nc2cc(F)c(C3CCNC3)cc2OC2CC2)ncc1Cl (stereo not shown) [Final product 20] | 56 | 9
CC(C)S(=O)(=O)c1nn(C2CC2)cc1Nc1nc(Nc2cc(F)c(C3CCNCC3)cc2OC2CC2)ncc1Cl [Final product 21] | 10 | 1
CC(C)S(=O)(=O)c1nn(C)cc1Nc1nc(Nc2cc(Cl)c(C3CCNCC3)cc2OC2CC2)ncc1Cl [Final product 22] | 14 | 2
CC(C)S(=O)(=O)c1nn(C2CC2)cc1Nc1nc(Nc2cc(Cl)c(C3CCNCC3)cc2OC2CC2)ncc1Cl [Final product 23] | 38 | 4

Compound | IC50 [1] [nM] | IC50 [2] [nM]
Cc1cc(Nc2ncc(Cl)c(Nc3cn(C)nc3S(=O)(=O)C(C)C)n2)c(OC2CC2)cc1C1CCNCC1 [Final product 24] | 9 | 2
Cc1cc(Nc2ncc(Cl)c(Nc3cn(C)nc3S(=O)(=O)C(C)C)n2)c(OC2CC2)cc1C1=CCNCC1 [Final product 25] | 12 | 2
Cc1cc(Nc2ncc(Cl)c(Nc3cn(C)nc3S(=O)(=O)C(C)C)n2)c(OC2CC2)cc1C1CCNC1 (stereo not shown) [Final product 26] | 16 | 5
Cc1cc(Nc2ncc(Cl)c(Nc3cn(C4CC4)nc3S(=O)(=O)C(C)C)n2)c(OC2CC2)cc1C1CCNCC1 [Final product 27] | 19 | 3
Cc1cc(Nc2ncc(Cl)c(Nc3cn(C)nc3S(=O)(=O)CC(C)C)n2)c(OC2CC2)cc1C1CCNCC1 [Final product 28] | 19 | 9
CC(C)S(=O)(=O)c1nn(C)cc1Nc1nc(Nc2cc(C#N)c(C3CCNCC3)cc2OC2CC2)ncc1Cl [Final product 29] | 35 | 4
CC(C)S(=O)(=O)c1nn(C)cc1Nc1nc(Nc2ccc(C3CCN(C)CC3)cc2OC(F)(F)F)ncc1Cl [Final product 30] | 25 | 7
Cc1cc(Nc2ncc(Cl)c(Nc3cn(C)nc3S(=O)(=O)C(C)C)n2)c(OC(F)(F)F)cc1C1CCN(C)CC1 [Final product 31] | 20 | 6
Cc1cc(Nc2ncc(Cl)c(Nc3cn(C)nc3S(=O)(=O)C(C)C)n2)c(C(F)(F)F)cc1C1CCN(C)CC1 [Final product 32] | 74 | 22
Cc1cc(Nc2ncc(Cl)c(Nc3cn(C)nc3S(=O)(=O)C(C)C)n2)c(OC(CF)CF)cc1C1CCN(C)CC1 [Final product 34] | 62 | 10
Cc1cc(Nc2ncc(Cl)c(Nc3cn(C)nc3S(=O)(=O)CC(C)C)n2)c(OC(C)C)cc1C1CN(C)C1 [Final product 36] | 62 | 8
Cc1cc(Nc2ncc(Cl)c(Nc3cn(C)nc3S(=O)(=O)C(C)C)n2)c(OC(C)C)cc1C1CCN(C)C1 (stereo not shown) [Final product 37] | 11 | 7
CC(C)S(=O)(=O)c1nn(C2CC2)cc1Nc1nc(Nc2ccc(C3CCN(C)CC3)cc2OC(F)(F)F)ncc1Cl [Final product 38] | 22 | 11
Cc1cc(Nc2ncc(Cl)c(Nc3cn(C)nc3S(=O)(=O)C(C)C)n2)c(OCC2CC2)cc1C1CCN(C)CC1 [Final product 39] | 74 | 15
CC(C)S(=O)(=O)c1nn(C)cc1Nc1nc(Nc2ccc(C3CCN(C)C3)cc2OC2CC2)ncc1Cl (stereo not shown) [Final product 41] | 4 | 1
CC(C)S(=O)(=O)c1nn(C2CC2)cc1Nc1nc(Nc2ccc(C3CCN(C)CC3)cc2OC2CC2)ncc1Cl [Final product 42] | 3 | 1
CC(C)S(=O)(=O)c1nn(C)cc1Nc1nc(Nc2cc(F)c(C3CCN(C)C3)cc2OC2CC2)ncc1Cl (stereo not shown) [Final product 45] | 19 | 4
CC(C)S(=O)(=O)c1nn(C2CC2)cc1Nc1nc(Nc2cc(Cl)c(C3CCN(C)CC3)cc2OC2CC2)ncc1Cl [Final product 48] | 41 | 2
CC(C)S(=O)(=O)c1nn(C)cc1Nc1nc(Nc2cc(C#N)c(C3CCN(C)CC3)cc2OC2CC2)ncc1Cl [Final product 49] | 100 | 8
